Data: publication PMC12036875, “Mitochondria-targeting natural product rhein conjugated with dichloroacetate as the dual inhibitor of glycolysis and oxidative phosphorylation to off energize cancer cells and induce ROS storm” (Theranostics, 2025)

Legend:
[1] = test system: 4T1 cells; assay: Scratch (migration) assay; assay type: cell-based, Mouse; conditions: 6.25 μM, 24 h
Description: Cellular migration is the pivotal characteristic of cancer metastasis. […] Considering the inhibition of the glycolysis pathway resulting in a decrease of lactate, we studied the migration behavior of aggressive 4T1 cells in vitro. The results of scratch assay were shown in Figure S15, after being treated with different drugs for 24 h, the wound borders of 4T1 cells gradually got closer in control, rhein, DCA and R + D groups, and the migration rates reached approximately 40%.
4T1 cells were seeded in 6-well plate and incubated for 24 h. A straight scratch line across the cell monolayer was marked at the bottom of the plate with 200 μL pipette tip. Plate was washed twice with PBS to remove the detached cells. 6.25 μM of indicated drugs were added into each well, then the wound borders of cells were imaged at 0 h, 12 h and 24 h, respectively. The migration rate was calculated as follows: migration rate (%) = (initial scratch area - final scratch area) / initial scratch area × 100%, and the scratch area was processed with the Image J derivatives Fiji software.

[2] = test system: phospho-Ser^293 PDHA1 protein in 4T1 cells; assay: Western blot of phospho-Ser293 PDHA1; assay type: cell-based, Mouse; conditions: 6.25 μM, 24 h, vs control
Description: Then, the phospho-Ser^293 PDHA1 protein level in 4T1 cells, which is regulated by PDK1, was further analyzed with western blot (Figure 2C). […] The conjugate successfully altered glycolysis of 4T1 cells via PDK-PDH axis.
4T1 cells were seeded in 6-well plates at a density of 20 × 10^4 cells per well and cultured for 24 h. Then the cells were treated with rhein, DCA, R + D and Rhein-DCA conjugate, each at a concentration of 6.25 μM for 24 h. Cells were washed twice with PBS and lysed by RIPA total protein extraction solution containing multiple protease inhibitors for 30 min while being maintained on ice. The lysate was centrifuged at 9391 G for 10 min at 4 °C to obtain the total protein solution. The concentrations of total protein were determined with BCA Protein Assay Kit. The protein was further denatured with 5 × protein loading buffer at 100 °C for 15 min. Sodium dodecyl sulfate polyacrylamide gel electrophoresis was conducted to separate the protein and transferred it to PVDF membranes. The PVDF membranes were blocked with 5% skim milk for 30 min at room temperature and incubated with indicated primary antibodies: Anti-Cytochrome C Rabbit pAb (1:1000); Anti-β-actin Rabbit pAb (1:1000); or Anti-PDHA1 Rabbit mAb (phosphoS^293) (1:1000) overnight at 4 °C. The membranes were incubated with HRP conjugated Goat Anti-Rabbit IgG (H+L) (1:5000), respectively, for 30 min at room temperature and then analyzed by chemiluminescence (Clinx,6100).

[3] = test system: 4T1 tumor tissue; assay: IHC of pPDHA1-Ser293 and IF of HMGB1 in tumor slices; assay type: in vivo, Balb/c mice; conditions: 20 mg/kg oral, 24 days; for pPDHA1-Ser293 protein level in tumor tissue (IHC): vs vehicle
Excerpt: The TAMs are the prominent components in the TEM and play a critical role in tumoral immunosuppression. Repolarization of protumor M2 phenotype into antitumor M1 phenotype is promising for malignant tumors. On the one hand, as a key metabolite fueling M2 polarization, lactate is very important in modulating the polarization state of macrophages within the tumor microenvironment. To verify that Rhein-DCA conjugate reprogrammed the metabolism of cells on solid tumors, we analyzed the expression of pPDHA1-Ser^293 protein in tumor tissues with immunohistochemical staining (IHC) (Figure 7A). […] The end product lactate of glycolysis decreased 20%, consistent with DCA's ability to reverse the Warburg effect. […] On the other hand, the ICD behavior of cancer cells also can activate TAMs into M1 polarization. Then, the release of HMGB1 was evaluated to assess the ICD effect in vivo with immunofluorescence staining (IF) (Figure 7C).
After 24 days, the mice were euthanized, and then tumors were excised to photographing and weighting. The tumors in each group were performed with TUNEL (green fluorescence) and H&E assay. In addition, immunohistochemical staining was conducted on the tumor tissue to determine the pPDHA1-Ser^293 protein level. Besides, immunofluorescence staining was used to detect the expression of HMGB1 protein in the tumor.

[4] = test system: 4T1 cells; assay: Mitochondrial membrane potential assay, JC-1; assay type: cell-based, Mouse; conditions: 6.25 μM, 24 h; for JC-1 green/red fluorescence (Δψm), in words: vs control
Excerpt: On the other hand, rhein could also disturb mitochondria, the camp of OXPHOS, to further prevent cancer cells from obtaining ATP by inducing pathological opening of mPTP [30]. We first detected mPTP on 4T1 cancer cells treated with indicated drugs according to the mPTP assay kit. The green fluorescence of Calcein AM in mitochondria would vanish when the quencher entered mitochondria through the opened mPTP channel. […] The sustained opening of mPTP along with the loss of Δψm. Thus, we further examined the Δψm of 4T1 cancer cells with JC-1 fluorescence dyes and tetramethylrhodamine, ethyl ester (TMRE) probe. The JC-1 dyes underwent a transition from aggregated red fluorescence to monomeric green fluorescence with mitochondrial depolarization in cells, and the increase of green/red fluorescence intensity ratio of JC-1 dyes indicated mitochondrial depolarization.
(§1) TMRE is a lipophilic cationic fluorescent probe (Ex = 550 nm, Em = 575 nm). The accumulation of TMRE within the mitochondria would reduce with the mitochondrial depolarization, resulting in a decrease in fluorescence intensity. […] The integrity of mitochondria is significant for mitochondrial bioenergy production. Given the influence of ETC, NADH dehydrogenase, ATP synthase and the decrease of Δψm, we speculated that the ATP production from OXPHOS would be hindered by Rhein-DCA conjugate. Mitochondrial bioenergetic processes of 4T1 cells was measured by oxygen consumption rate (OCR) to reflect the capability of OXPHOS.
JC-1: The Δψm was performed using the JC-1 assay with flow cytometry and confocal microscope. 4T1 cells were separately seeded into 6-well plates and confocal dishes at a density of 10 × 10^4 cells per well and cultured at 37 °C for 24 h. Cells were cultured with PBS, rhein (6.25 μM), DCA (6.25 μM), R + D (6.25 μM + 6.25 μM) and Rhein-DCA (6.25 μM) for another 24 h. […] Samples were then immediately detected by flow cytometry and imaged with confocal microscope.

[5] = test system: 4T1 cells; assay: Oxygen consumption rate (Seahorse); assay type: cell-based, Mouse; conditions: 6.25 μM, 24 h
Excerpt: as §1
The mitochondrial bioenergetics of 4T1 cells was investigated by Seahorse Extracellular Flux analyser. 4T1 cells were seeded in 24-well plates (Seahorse Bioscience) at a density of 2 × 10^4 cells per well and incubated for 24 h at 37 °C in 5% CO2 atmosphere. The cells were treated with indicated drugs at a concentration of 6.25 μM for 24 h. At the same time, XF sensor cartridges were hydrated overnight in a CO2-free environment. The cells were cultured in the incubator for 1 h at 37 °C without CO2 after washed with Seahorse XF assay medium. Three baseline measurements of OCR were detected with Seahorse XFe24 analyzer when the oligomycin (1.0 μM, ATP synthase complex inhibitor), FCCP (1.0 μM, ATP synthesis uncoupler […]) and the mixture of antimycin-A (1.0 μM, inhibitor of complex III) and rotenone (1.0 μM, inhibitor that prevents the transfer of electrons from the Fe-S center in complex I to ubiquinone) were sequentially injected for the detection of the oxygen consumption rate.

| SMILES | migration rate [1] | phospho-Ser293 PDHA1 protein level (western blot) [2] | HMGB1 localisation in tumor slices (IF) [3] | pPDHA1-Ser293 protein level in tumor tissue (IHC) [3] | JC-1 green/red fluorescence (Δψm), in words [4] | effect on OCR / cellular OXPHOS (basal respiration, ATP production, maximal respiration) [5] | JC-1 green/red ratio relative to control group [4] |
| --- | --- | --- | --- | --- | --- | --- | --- |
| O=C(O)C(Cl)Cl [DCA, Dichloroacetate] | approximately 40% | slightly downregulation | almost all of HMGB1 overlapped with nucleus | obvious down-expression | did not affect | minor effect |  |
| O=C(O)c1cc(O)c2c(c1)C(=O)c1cccc(O)c1C2=O [Rhein, 4,5-dihydroxyanthraquinone-2-carboxylic acid] | approximately 40% | no obvious down-regulated trend | almost all of HMGB1 overlapped with nucleus | did not significantly alter | relatively increased green/red ratio | moderate effects |  |
| O=C(OCCOC(=O)C(Cl)Cl)c1cc(O)c2c(c1)C(=O)c1cccc(O)c1C2=O [Rhein-DCA] | 8% | lowest expression | mostly appeared outside the nucleus with weak intensity | down-expression |  | complete disruption | about 7 fold |
